Format in all cases: in vivo
Experiment [1] deals with larvae of the banded cucumber beetle (Diabrotica balteata). Put plainly: Diabrotica balteata spray test. Particulars: 168 h, after 7 days, read-out: efficacy (seedling growth); for pest or weed control at 6.4 µg/disc, 20 g/ha: 20 g/ha (=6.4 μg/well); for pest or weed control at 32 µg/disc, 100 g/ha: 100 g/ha (=32 μg/well). A digest of the protocol:
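Efficacy was read 7 days after infesting each unit with 10–20 banded cucumber beetle larvae, as % of seedlings growing like untreated, uninfested controls. Before infestation, wheat seeds germinated 1 day on agar (5 per well) were sprayed with the active ingredient. The active was formulated in acetone/DMF and diluted in water containing emulsifier.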

Experiment [2] has as its system fall armyworm larvae (Spodoptera frugiperda). Put plainly: Spodoptera frugiperda spray test. The note with it: 168 h, maize leaf sections, after 7 days. The procedure, abridged: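 Percent larval kill read at day 7, from 0% (no caterpillars dead) to 100% (all dead). Larvae were placed on dried Zea mays leaf discs previously sprayed with test preparations made from an acetone/DMF solution diluted in 1000 ppm emulsifier-containing water.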

Experiment [3] deals with adult unfed cat fleas (Ctenocephalides felis). Put plainly: Ctenocephalides felis oral test. Particulars: 48 h, 100 ppm in citrated cattle blood, after 2 days. The protocol: Ctenocephalides felis—Oral Test
(§1) Solvent: dimethyl sulfoxide
To produce a suitable preparation of active compound, 10 mg of active compound are dissolved in 0.5 mL solvent, and the concentrate is diluted with citrated cattle blood to the desired concentration.
Approximately 20 adult unfed cat fleas (Ctenocephalides felis) are placed in a flea chamber whose top and bottom is covered with gauze. A chamber whose bottom is sealed with parafilm, is filled with the blood-compound solution and placed on top of the flea chamber, so that the fleas can suck the blood. The blood chamber is heated to 37° C. whereas the flea chamber is kept at room temperature.
After 2 days mortality in % is determined. 100% means all the fleas have been killed; 0% means none of the fleas have been killed.

Experiment [4] has as its system adult engorged female ticks (Rhipicephalus microplus). Put plainly: Rhipicephalus (Boophilus) microplus injection test. Particulars: 168 h, 4 μg/animal, egg deposition after 7 days, read-out: efficacy (infertile eggs). The protocol:
Rhipicephalus (Boophilus) microplus—Injection Test
as §1
To produce a suitable preparation of active compound, 10 mg of active compound are dissolved in 0.5 mL solvent, and the concentrate is diluted with solvent to the desired concentration.
Five adult engorged female ticks (Rhipicephalus microplus) are injected with 1 μL compound solution into the abdomen. The ticks are transferred into replica plates and incubated in a climate chamber.
After 7 days egg deposition of fertile eggs is monitored. Eggs where fertility is not visible are stored in a climate chamber till hatching after about 42 days. An efficacy of 100% means all eggs are infertile; 0% means all eggs are fertile.

Experiment [5] has as its system adult cat fleas (Ctenocephalides felis). Put plainly: Ctenocephalides felis in-vitro contact test, adult cat flea. The note with it: after 48 hours, read-out: efficacy (fleas dead or moribund); for pest or weed control at 1 µg/cm2, 100 g/ha: 1 μg/cm^2 (=100 g/ha); for pest or weed control at 5 µg/cm2, 500 g/ha: 5 μg/cm^2 (=500 g/ha). The method, then:
Ctenocephalides felis—In-Vitro Contact Tests Adult Cat Flea
9 mg compound is solved in 1 ml acetone and diluted with acetone to the desired concentration. 250 μL of the test solution is filled in 25 mL glass test tubes and homogeneously distributed on the inner walls by rotation and tilting on a shaking device (2 h at 30 rpm). With a compound concentration of 900 ppm, an inner surface of 44.7 cm^2 and a homogeneous distribution, a dose of 5 μg/cm^2 is achieved.
After the solvent has evaporated, each test tube is filled with 5-10 adult cat fleas (Ctenocephalides felis), closed with a perforated lid and incubated in a lying position at room temperature and relative humidity. After 48 hours efficacy is determined. The fleas are patted on the ground of the tubes and are incubated on a heating plate at 45-50° C. for at most 5 minutes Immotile or uncoordinated moving fleas, which are not able to escape the heat by climbing upwards, are marked as dead or moribund.
An efficacy of 100% means all fleas are dead or moribund; 0% means no fleas are dead or moribund.

For experiment [6], the system named is adult brown dog ticks (Rhipicephalus sanguineus). Put plainly: Rhipicephalus sanguineus in-vitro contact test, adult brown dog ticks. The note with it: 48 h, after 48 hours, read-out: efficacy (ticks dead or moribund); for pest or weed control at 5 µg/cm2, 500 g/ha: 5 μg/cm^2 (=500 g/ha). The protocol:
Rhipicephalus sanguineus—In-Vitro Contact Tests with Adult Brown Dog Ticks
9 mg compound is solved in 1 mL acetone and diluted with acetone to the desired concentration. […] the test solution is filled in 25 mL glass test tubes and homogeneously distributed on the inner walls by rotation and tilting on a shaking device (2 h at 30 rpm). With a compound concentration of 900 ppm, an inner surface of 44.7 cm^2 and a homogeneous distribution, a dose of 5 μg/cm^2 is achieved.
After the solvent has evaporated, each test tube is filled with 5-10 adult brown dog ticks (Rhipicephalus sanguineus), closed with a perforated lid and incubated in a lying position at room temperature and relative humidity. After 48 hours efficacy is determined. The ticks are patted on the ground of the tubes and are incubated on a heating plate at 45-50° C. for at most 5 minutes Immotile or uncoordinated moving ticks, which are not able to escape the heat by climbing upwards, are marked as dead or moribund.
An efficacy of 100% means all ticks are dead or moribund; 0% means no ticks are dead or moribund.

Experiment [7] relates to Rhipicephalus (Boophilus) microplus larvae (strain Parkhurst, resistant against synthetic pyrethroids). Put plainly: Rhipicephalus (Boophilus) microplus in-vitro contact test, larval cattle tick. Particulars: after 48 hours, read-out: efficacy (larvae dead or moribund); for pest or weed control at 1 µg/cm2, 100 g/ha: 1 μg/cm^2 (=100 g/ha); for pest or weed control at 5 µg/cm2, 500 g/ha: 5 μg/cm^2 (=500 g/ha). A digest of the protocol:
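Pyrethroid-resistant larvae (strain Parkhurst), 20–50 per tube, exposed by contact to a dried acetone film of compound (5 μg/cm² at 900 ppm) for 48 h at 27 °C and 85% humidity. Percent dead or moribund larvae scored from negative geotactic behaviour.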

Take `CC(NC(=O)c1cc(Cl)cc(OC(F)(F)F)c1)c1nccnc1-c1ccccn1` (centres unmarked) [Example I-12]: in experiment [1], the pest or weed control at 6.4 µg/disc, 20 g/ha came to 100% and the pest or weed control at 32 µg/disc, 100 g/ha stood at 100%. In experiment [2], the mortality at 100 g/ha was determined as 83%. In experiment [3], this molecule registered a mortality at 100 ppm of 100%.

With `CC(NC(=O)c1cc(C(F)(F)F)cc(C(F)(F)F)c1)c1nccnc1-c1ncc(C(=O)N2CCCCC2)s1` (racemic) [Example I-64, (rac)-N-[1-{3-[5-(Piperidine-1-carbonyl)-1,3-thiazol-2-yl]pyrazin-2-yl}ethyl]-3,5-bis(trifluoromethyl)benzamide], in experiment [4], the pest or weed control at 0.004 mg was found to be 100%. Further, the pest or weed control at 1 µg/cm2, 100 g/ha in experiment [5] and in experiment [7] was 100% each time. Also, the pest or weed control at 5 µg/cm2, 500 g/ha in experiment [5], in experiment [6] and in experiment [7] was 100% each time.

On to `CC(NC(=O)c1cc(Cl)cc(S(C)(=O)=O)c1)c1nccnc1-n1cc(C#N)cn1` (racemic) [Example I-103, (rac)-3-Chloro-N-{1-[3-(4-cyano-1H-pyrazol-1-yl)pyrazin-2-yl]ethyl}-5-(methanesulfonyl)benzamide], for which, in experiment [1], the pest or weed control at 6.4 µg/disc, 20 g/ha is 100% and the pest or weed control at 32 µg/disc, 100 g/ha is 100%. In addition, the mortality at 100 g/ha in experiment [2] was 100%. For the same molecule, the pest or weed control at 5 µg/cm2, 500 g/ha in experiment [5] was 80%. For the same molecule, the pest or weed control at 5 µg/cm2, 500 g/ha in experiment [6] was found to be 80%. Further, in experiment [7], the pest or weed control at 1 µg/cm2, 100 g/ha was 90% and the pest or weed control at 5 µg/cm2, 500 g/ha stood at 90%.

On to `CC(NC(=O)c1cc(C(F)(F)F)cc(C(F)(F)F)c1)c1nccnc1-c1ncc(C(=O)N2CCCOCC2)s1` (racemic) [Example I-68, (rac)-N-[1-{3-[5-(1,4-Oxazepane-4-carbonyl)-1,3-thiazol-2-yl]pyrazin-2-yl}ethyl]-3,5-bis(trifluoromethyl)benzamide], for which the pest or weed control at 32 µg/disc, 100 g/ha in experiment [1] came to 100%. Further, the pest or weed control at 1 µg/cm2, 100 g/ha in experiment [5] and in experiment [7] was 100% throughout. In addition, the pest or weed control at 5 µg/cm2, 500 g/ha in experiment [5], in experiment [6] and in experiment [7] was 100% in each case.

Regarding `CC(NC(=O)c1cc(Br)cc(OC(F)(F)F)c1)c1nccnc1-c1nccs1` (racemic) [Example I-53, (rac)-3-Bromo-N-{1-[3-(1,3-thiazol-2-yl)pyrazin-2-yl]ethyl}-5-(trifluoromethoxy)benzamide], in experiment [1], the pest or weed control at 6.4 µg/disc, 20 g/ha was 80% and the pest or weed control at 32 µg/disc, 100 g/ha is 100%. Moreover, in experiment [4], the pest or weed control at 0.004 mg is 80%.

Turning to `CCN(C)C(=O)c1cnc(-c2nccnc2C(C)NC(=O)c2cc(C(F)(F)F)cc(C(F)(F)F)c2)s1` (racemic) [Example I-72, (rac)-2-(3-{1-[3,5-Bis(trifluoromethyl)benzamido]ethyl}pyrazin-2-yl)-N-ethyl-N-methyl-1,3-thiazole-5-carboxamide], in experiment [1], the pest or weed control at 6.4 µg/disc, 20 g/ha was 100% and the pest or weed control at 32 µg/disc, 100 g/ha came to 100%. In experiment [2], this molecule yielded a mortality at 100 g/ha of 100%. Further, the pest or weed control at 5 µg/cm2, 500 g/ha in experiment [6] was 80%. In addition, in experiment [7], the pest or weed control at 1 µg/cm2, 100 g/ha is 100% and the pest or weed control at 5 µg/cm2, 500 g/ha is 100%.

In the case of `CC(NC(=O)c1cc(C(F)(F)F)cc(C(F)(F)F)c1)c1nccnc1-c1ncc(C(=O)N2C[C@@H](C)O[C@@H](C)C2)s1` (mixture of isomers) [Example I-66, (rac)-N-[1-(3-{5-[(cis)-2,6-Dimethylmorpholine-4-carbonyl]-1,3-thiazol-2-yl}pyrazin-2-yl)ethyl]-3,5-bis(trifluoromethyl)benzamide], in experiment [1], the pest or weed control at 6.4 µg/disc, 20 g/ha was 100% and the pest or weed control at 32 µg/disc, 100 g/ha came out at 100%. The pest or weed control at 0.004 mg in experiment [4] amounted to 80%. In experiment [2], this molecule had a mortality at 100 g/ha of 100%. Also, in experiment [5], the pest or weed control at 1 µg/cm2, 100 g/ha was 100% and the pest or weed control at 5 µg/cm2, 500 g/ha was 100%. In addition, in experiment [6], the pest or weed control at 5 µg/cm2, 500 g/ha was 80%. In addition, in experiment [7], the pest or weed control at 1 µg/cm2, 100 g/ha stood at 100% and the pest or weed control at 5 µg/cm2, 500 g/ha came out at 100%.

`CC(NC(=O)c1cncc(C(C)(C)C)c1)c1nccnc1-c1ncccn1` (racemic) [Example I-11, (rac)-5-(tert-Butyl)-N-(1-(3-(pyrimidin-2-yl)pyrazin-2-yl)ethyl)nicotinamide] yielded a mortality at 100 ppm in experiment [3] of 90%. Moreover, in experiment [7], the pest or weed control at 5 µg/cm2, 500 g/ha was 100%.

As to `CC(NC(=O)c1cc(C(F)(F)F)cc(C(F)(F)F)c1)c1nccnc1-n1cc(C(=O)N2C[C@@H](C)O[C@@H](C)C2)cn1` (mixture of isomers) [Example I-138, (rac)-N-[1-(3-{4-[(cis)-2,6-Dimethylmorpholine-4-carbonyl]-1H-pyrazol-1-yl}pyrazin-2-yl)ethyl]-3,5-bis(trifluoromethyl)benzamide], the pest or weed control at 32 µg/disc, 100 g/ha in experiment [1] was 100%. In addition, the mortality at 100 g/ha in experiment [2] is 100%. In addition, the pest or weed control at 1 µg/cm2, 100 g/ha in experiment [6] (1 μg/cm^2 (=100 g/ha)) and in experiment [7] was 100% throughout. The pest or weed control at 5 µg/cm2, 500 g/ha in experiment [6] and in experiment [7] was 100% throughout.

For the molecule `CC(NC(=O)c1cc(Cl)cc(C(F)(F)F)c1)c1nccnc1-c1ncc(C(=O)N2CCOCC2)s1` (racemic) [Example I-59, (rac)-3-Chloro-N-[1-{3-[5-(morpholine-4-carbonyl)-1,3-thiazol-2-yl]pyrazin-2-yl}ethyl]-5-(trifluoromethyl)benzamide], the pest or weed control at 32 µg/disc, 100 g/ha in experiment [1] came to 100%. This molecule came in with a mortality at 100 g/ha in experiment [2] of 83%. The pest or weed control at 5 µg/cm2, 500 g/ha in experiment [6] was 100%. Besides, in experiment [7], the pest or weed control at 1 µg/cm2, 100 g/ha was found to be 100% and the pest or weed control at 5 µg/cm2, 500 g/ha was 100%.

Regarding `CC(NC(=O)c1cc(Cl)cc(OC(F)(F)F)c1)c1nccnc1-c1ccc(Cl)cn1` (centres unmarked) [Example I-21], in experiment [1], the pest or weed control at 6.4 µg/disc, 20 g/ha amounted to 100% and the pest or weed control at 32 µg/disc, 100 g/ha turned out to be 100%. Also, the pest or weed control at 0.004 mg in experiment [4] was 80%. For the same molecule, the mortality at 100 g/ha in experiment [2] amounted to 100%.

With `CC(NC(=O)c1cc(C#N)cc(C(F)(F)F)c1)c1nccnc1-c1nccs1` (racemic) [Example I-56, (rac)-3-Cyano-N-{1-[3-(1,3-thiazol-2-yl)pyrazin-2-yl]ethyl)-5-(trifluoromethyl)benzamide], in experiment [1], the pest or weed control at 6.4 µg/disc, 20 g/ha is 100% and the pest or weed control at 32 µg/disc, 100 g/ha was found to be 100%. Also, in experiment [4], the pest or weed control at 0.004 mg is 100%. Also, the mortality at 100 g/ha in experiment [2] was found to be 100%.

As a reminder, the mortality is the percentage killed.

The values are drawn from patent US12583851B2, “Heteroaryl-substituted pyrazine derivatives as pesticides” (Elanco Animal Health GmbH, priority 2019, dated 2026).
